In the supplement of paper PMC10307832:

Columns and labels:
Assay in all cases: relative viability (nuclei count vs DMSO), 5 days (fraction); higher = more cells survive
AT9283 + Navitoclax = compound: O=C(Nc1c[nH]nc1-c1nc2ccc(CN3CCOCC3)cc2[nH]1)NC1CC1 [AT9283] + CC1(C)CCC(c2ccc(Cl)cc2)=C(CN2CCN(c3ccc(C(=O)NS(=O)(=O)c4ccc(N[C@H](CCN5CCOCC5)CSc5ccccc5)c(S(=O)(=O)C(F)(F)F)c4)cc3)CC2)C1 [Navitoclax] (partner 0.5 µM)
Procedure, shortened: (§1)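 Lung cancer cell lines in 1536-well plates were dosed by pin tool the day after seeding, either with one drug alone or with a fixed anchor-drug dose plus five library-drug doses (not always all listed) in √10 steps. After 5 days, cells were fixed and their nuclei stained in one step (final 0.05% Triton X-100, 1% formaldehyde, 1 ug/ml Hoechst), then counted on 4× images. Relative viability is the nuclei count in treated wells divided by that in vehicle wells. Values are medians of duplicate plates.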

Erlotinib + Dasatinib = compound: C#Cc1cccc(Nc2ncnc3cc(OCCOC)c(OCCOC)cc23)c1 [Erlotinib] + Cc1nc(Nc2ncc(C(=O)Nc3c(C)cccc3Cl)s2)cc(N2CCN(CCO)CC2)n1 [Dasatinib] (partner 0.075 µM)
Procedure, shortened: as §1

AT9283 + Vorinostat = compound: O=C(Nc1c[nH]nc1-c1nc2ccc(CN3CCOCC3)cc2[nH]1)NC1CC1 [AT9283] + O=C(CCCCCCC(=O)Nc1ccccc1)NO [Vorinostat] (partner 1 µM)
Procedure, shortened: as §1

Erlotinib + Linsitinib = compound: C#Cc1cccc(Nc2ncnc3cc(OCCOC)c(OCCOC)cc23)c1 [Erlotinib] + C[C@]1(O)C[C@@H](c2nc(-c3ccc4ccc(-c5ccccc5)nc4c3)c3c(N)nccn32)C1 [Linsitinib] (partner 1 µM)
Procedure, shortened: as §1

AT9283 + Alpelisib = compound: O=C(Nc1c[nH]nc1-c1nc2ccc(CN3CCOCC3)cc2[nH]1)NC1CC1 [AT9283] + Cc1nc(NC(=O)N2CCC[C@H]2C(N)=O)sc1-c1ccnc(C(C)(C)C(F)(F)F)c1 [Alpelisib] (partner 2 µM)
Procedure, shortened: as §1

| Cell Line | relative viability (AT9283 + Navitoclax; first compound 0.003 µM) | relative viability (AT9283 + Navitoclax; first compound 0.03 µM) | relative viability (AT9283 + Navitoclax; first compound 0.09487 µM) | relative viability (AT9283 + Navitoclax; first compound 0.3 µM) | relative viability (Erlotinib + Dasatinib; first compound 0.02 µM) | relative viability (Erlotinib + Dasatinib; first compound 0.2 µM) | relative viability (Erlotinib + Dasatinib; first compound 0.6325 µM) | relative viability (Erlotinib + Dasatinib; first compound 2 µM) | relative viability (AT9283 + Vorinostat; first compound 0.003 µM) | relative viability (AT9283 + Vorinostat; first compound 0.03 µM) | relative viability (AT9283 + Vorinostat; first compound 0.09487 µM) | relative viability (AT9283 + Vorinostat; first compound 0.3 µM) | relative viability (Erlotinib + Linsitinib; first compound 0.02 µM) | relative viability (Erlotinib + Linsitinib; first compound 0.2 µM) | relative viability (Erlotinib + Linsitinib; first compound 2 µM) | relative viability (AT9283 + Alpelisib; first compound 0.003 µM) | relative viability (AT9283 + Alpelisib; first compound 0.03 µM) | relative viability (AT9283 + Alpelisib; first compound 0.09487 µM) | relative viability (AT9283 + Alpelisib; first compound 0.3 µM) | relative viability (Erlotinib + Linsitinib; first compound 0.6325 µM) |
| --- | --- | --- | --- | --- | --- | --- | --- | --- | --- | --- | --- | --- | --- | --- | --- | --- | --- | --- | --- | --- |
| NCI-H460 | 1.23 | 0.987 | 0.0587 | 0.0315 | 0.486 | 0.51 | 0.5 | 0.432 | 0.856 | 0.639 | 0.158 | 0.0711 | 0.804 | 0.647 | 0.712 | 0.516 | 0.43 | 0.0573 | 0.017 | – |
| HCC-44 | 0.897 | 0.787 | 0.823 | 0.257 | – | – | – | – | 1.07 | 1.05 | 0.571 | 0.567 | 0.663 | 0.664 | 0.61 | 0.784 | 0.795 | 0.2 | 0.116 | 0.723 |
| NCI-H2087 | 0.985 | 0.713 | 0.273 | 0.186 | 0.799 | 0.821 | 0.923 | 0.735 | 1.01 | 0.158 | 0.179 | 0.126 | 1.03 | 1.14 | 0.828 | 1.22 | 0.658 | 0.259 | 0.165 | 1.06 |
| UMC-11 | 0.309 | 0.113 | 0.118 | 0.128 | 0.512 | 0.438 | 0.482 | 0.424 | 0.359 | 0.109 | 0.117 | 0.124 | 1.04 | 1.05 | 0.945 | 1.01 | 0.148 | 0.122 | 0.146 | 1.16 |
| NCI-H1355 | 1.07 | 0.806 | 0.46 | 0.158 | 0.701 | 0.571 | 0.666 | 0.472 | 0.602 | 0.452 | 0.388 | 0.169 | 0.921 | 0.815 | 0.559 | 0.855 | 0.898 | 0.443 | 0.182 | 0.723 |
| H3255 | 0.513 | 0.499 | 0.216 | 0.105 | 0.322 | 0.347 | 0.167 | 0.278 | 0.818 | 0.907 | 0.733 | 0.298 | 0.971 | 0.297 | 0.115 | 0.652 | 0.68 | 0.443 | 0.178 | 0.188 |
| NCI-H2085 | 1.05 | 0.815 | 0.671 | 0.244 | 0.235 | 0.2 | 0.266 | 0.249 | 0.775 | 0.755 | 0.631 | 0.305 | 0.858 | 0.728 | 0.76 | 0.946 | 0.894 | 0.615 | 0.411 | 0.664 |
| IA-LM | 0.952 | 0.372 | 0.112 | 0.0779 | – | – | – | – | 0.927 | 0.624 | 0.144 | 0.111 | 0.62 | 0.578 | 0.595 | 0.891 | 0.418 | 0.199 | 0.0959 | 0.55 |
| LCLC-103H | – | – | – | – | – | 0.6 | 0.478 | 0.399 | 0.745 | 0.566 | 0.355 | 0.306 | 1.1 | 1.21 | 1.01 | 0.89 | 1.09 | 1.11 | 0.332 | 1.15 |
| NCI-H2405 | 1.05 | 0.31 | 0.127 | 0.0943 | 0.214 | 0.224 | 0.201 | 0.195 | 0.959 | 0.576 | 0.3 | 0.24 | 1.01 | – | 0.768 | 0.881 | 0.551 | 0.236 | 0.15 | 0.994 |
| NCI-H1666 | 1.08 | 0.885 | 0.432 | 0.315 | – | 0.759 | 0.828 | 0.64 | 1.18 | 0.769 | 0.527 | 0.606 | 0.82 | 0.696 | 0.496 | 1.04 | 0.736 | 0.363 | 0.291 | 0.62 |
| COR-L 105 | 0.83 | 0.27 | 0.293 | 0.281 | 0.302 | 0.173 | 0.182 | 0.122 | 0.839 | 0.343 | 0.383 | 0.321 | 0.907 | 0.532 | 0.289 | 1.49 | 0.342 | 0.278 | 0.333 | 0.385 |
| ABC-1 | – | – | – | – | 0.564 | 0.491 | 0.506 | 0.565 | 1.05 | 0.373 | 0.359 | 0.258 | 0.928 | 0.674 | 0.686 | 0.957 | 0.238 | 0.269 | 0.355 | 0.776 |
| EPLC-272H | 0.984 | 1.05 | 1.1 | 0.138 | 0.461 | 0.217 | 0.358 | 0.279 | 0.467 | 0.167 | 0.206 | 0.139 | 1.11 | 1.18 | 0.802 | 0.872 | 0.831 | 0.954 | 0.2 | 1.06 |
| NCI-H1792 | 0.637 | 0.569 | 0.248 | 0.187 | 0.875 | 0.655 | 0.981 | 0.608 | – | – | – | – | 0.466 | 0.405 | 0.432 | 0.633 | 0.82 | 0.565 | 0.242 | 0.525 |
| NCI-H2170 | 0.536 | 0.334 | 0.201 | 0.179 | 0.554 | 0.548 | 0.434 | 0.272 | 0.765 | 0.514 | 0.272 | 0.13 | – | – | – | 0.806 | 0.638 | 0.205 | 0.217 | – |
| NCI-H2347 | 0.93 | 0.764 | 0.368 | 0.267 | 0.371 | 0.309 | 0.289 | 0.296 | 0.826 | 0.566 | 0.357 | 0.288 | 1.03 | 1.04 | 0.834 | 1.16 | 1.04 | 0.606 | 0.451 | – |
